Measured values reported in patent publication US8975417B2, “Pyrazolopyrrolidine derivatives and their use in the treatment of disease” (Novartis AG, priority 2013, dated 2015).

Legend:
[1] = target: His-Brd2(60-472) (Homo sapiens (Human), UniProt P25440); experiment: TR-FRET in-vitro binding assay for BRD2; details: biochemical
Outline: (§1)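 Bromodomain protein (45 nM in its addition solution) and tetra-acetylated histone H4 peptide (AcK5/8/12/16; 60 nM in its addition solution) were incubated with compounds for 35 min at 30 °C in 50 mM HEPES pH 7.5, 50 mM NaCl, 0.005% Tween20, 0.1% BSA. Eu-anti-His6 plus streptavidin-allophycocyanin detection followed, with TR-FRET read-out.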

[2] = target: His-Brd3(20-477) (Homo sapiens (Human), UniProt Q15059); experiment: TR-FRET in-vitro binding assay for BRD3; details: biochemical
His-Brd3(20-477), sequence (Q15059 20-477): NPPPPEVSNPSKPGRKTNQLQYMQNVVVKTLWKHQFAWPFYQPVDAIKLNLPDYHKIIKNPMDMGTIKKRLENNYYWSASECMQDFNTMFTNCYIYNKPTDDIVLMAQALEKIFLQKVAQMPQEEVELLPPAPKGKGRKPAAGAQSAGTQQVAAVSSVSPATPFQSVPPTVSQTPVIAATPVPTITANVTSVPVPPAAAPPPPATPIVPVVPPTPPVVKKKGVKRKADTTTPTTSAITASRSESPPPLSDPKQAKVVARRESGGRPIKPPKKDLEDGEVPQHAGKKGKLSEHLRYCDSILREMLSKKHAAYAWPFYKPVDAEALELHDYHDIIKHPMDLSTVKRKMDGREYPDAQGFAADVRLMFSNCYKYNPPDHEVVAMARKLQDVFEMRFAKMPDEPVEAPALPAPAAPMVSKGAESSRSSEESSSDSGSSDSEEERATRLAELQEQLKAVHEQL
Outline: as §1

[3] = tested on: K-562 cells; experiment: Cell growth inhibition assay (CellTiter-Glo), K-562; format: cell-based, human; details: Homo sapiens, K562, read-out: K-562 TGI
Outline: (§2)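 Luminescent ATP quantification served as the viability read-out following incubation at 37° C. under 5% CO2. A day-0 reference plate allowed scaling from −100% (medium) to 100% (0.1% DMSO vehicle), with IC50 and TGI fitted by a four-parameter model.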

[4] = target: His-CREBBP (1081-1197) bromodomain (Homo sapiens (Human), UniProt Q92793); experiment: AlphaScreen in-vitro binding assay for CREBBP; details: biochemical
His-CREBBP (1081-1197) bromodomain, sequence (Q92793 1081-1197): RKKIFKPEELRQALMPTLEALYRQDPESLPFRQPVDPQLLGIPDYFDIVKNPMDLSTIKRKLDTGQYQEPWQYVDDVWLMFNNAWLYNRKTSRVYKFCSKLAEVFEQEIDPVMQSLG
Outline: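 Ni-chelate acceptor and streptavidin donor beads (45 µg/mL each, in 50 mM HEPES pH 7.5, 150 mM NaCl, 0.02% BSA) were then added for 60 min at room temperature. IC50 came from 8-point non-linear regression.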

[5] = tested on: THP-1 cells; experiment: Cell growth inhibition assay (CellTiter-Glo), THP-1; format: cell-based; details: Homo sapiens, read-out: THP-1 TGI
Outline: as §2

[6] = target: His-Brd4(44-477) (Homo sapiens (Human), UniProt O60885); experiment: TR-FRET in-vitro binding assay for BRD4; details: biochemical
Outline: as §1

[7] = tested on: MV-4-11 cells; experiment: Cell growth inhibition assay (CellTiter-Glo), MV-4-11; format: cell-based; details: Homo sapiens, MV4-11, read-out: MV-4-11 TGI
Outline: as §2

His-Brd2(60-472), sequence (P25440 60-472): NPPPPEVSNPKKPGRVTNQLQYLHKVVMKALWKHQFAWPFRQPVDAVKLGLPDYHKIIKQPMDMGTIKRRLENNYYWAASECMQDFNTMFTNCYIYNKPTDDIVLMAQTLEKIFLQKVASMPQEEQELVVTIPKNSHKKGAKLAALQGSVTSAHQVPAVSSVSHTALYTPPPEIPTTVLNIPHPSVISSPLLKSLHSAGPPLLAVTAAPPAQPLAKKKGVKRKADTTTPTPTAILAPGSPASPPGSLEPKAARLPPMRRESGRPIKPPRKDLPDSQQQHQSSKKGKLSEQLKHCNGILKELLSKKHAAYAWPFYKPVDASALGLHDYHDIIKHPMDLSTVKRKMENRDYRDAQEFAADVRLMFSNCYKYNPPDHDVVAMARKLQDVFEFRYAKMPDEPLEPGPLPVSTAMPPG

SMILES	IC50 [1]	IC50 [2]	IC (total growth inhibition) [3]	IC50 [4]	IC (total growth inhibition) [5]	IC50 [6]	IC (total growth inhibition) [7]
COc1ncc(-n2nc3c(c2C(C)C)C(c2ccc(Cl)cc2)N(c2cc(C)c4nnc(C)n4c2)C3=O)c(OC)n1 (centres unmarked) [Example 67, 4-(4-chlorophenyl)-2-(2,4-dimethoxypyrimidin-5-yl)-5-(3,8-dimethyl-[1,2,4]triazolo-[4,3-a]pyridin-6-yl)-3-isopropyl-4,5-dihydropyrrolo[3,4-c]pyrazol-6(2H)-one]	43 nM	28 nM	> 10 µM	2800 nM	0.0385 µM	24 nM	0.0196 µM
CCc1c2c(nn1C1CC1)C(=O)N(c1cc(C)c(=O)n(C)c1)C2c1ccc(Cl)cc1 (centres unmarked) [Example 68]	37 nM	40 nM	> 10 µM	950 nM	0.117 µM	44 nM	0.0692 µM
CCc1nn(C2CC2)c2c1C(c1ccc(Cl)cc1)N(c1cc(C)c(=O)n(C)c1)C2=O (centres unmarked) [Example 69]	26 nM	28 nM	> 10 µM	4100 nM	0.0983 µM	27 nM	0.0466 µM
COc1ncccc1-n1nc(C)c2c1C(=O)N(c1cc(C)c(=O)n(C)c1)C2c1ccc(Cl)cc1 (centres unmarked) [Example 71, 4-(4-chlorophenyl)-5-(1,5-dimethyl-6-oxo-1,6-dihydropyridin-3-yl)-1-(2-methoxypyridin-3-yl)-3-methyl-4,5-dihydropyrrolo[3,4-c]pyrazol-6(1H)-one]	41 nM	58 nM	> 10 µM	5900 nM	0.178 µM	53 nM	0.103 µM
COCc1nn(C2CC2)c2c1[C@@H](c1ccc(Cl)cc1)N(c1cc(C)c(=O)n(C)c1)C2=O [Example 162, (R)-4-(4-chlorophenyl)-1-cyclopropyl-5-(1,5-dimethyl-6-oxo-1,6-dihydropyridin-3-yl)-3-(methoxymethyl)-4,5-dihydropyrrolo[3,4-c]pyrazol-6(1H)-one]	39 nM	42 nM	> 10 µM	3700 nM	0.173 µM	41 nM	0.0903 µM
Cc1n[nH]c2c1[C@@H](c1ccc(Cl)cc1)N(c1cc(C)c3nnc(C)n3c1)C2=O [Example 165, (R)-4-(4-chlorophenyl)-5-(3,8-dimethyl-[1,2,4]triazolo[4,3-a]pyridin-6-yl)-3-methyl-4,5-dihydropyrrolo[3,4-c]pyrazol-6(1H)-one]	17 nM	23 nM	> 10 µM	4600 nM	0.0921 µM	15 nM	0.0396 µM
Cc1cc(N2C(=O)c3c(c(CO)nn3C3CC3)[C@H]2c2ccc(Cl)cc2)cn2c(C)nnc12 [Example 166, (R)-4-(4-chlorophenol)-1-cyclopropyl-5-(3,8-dimethyl-[1,2,4]triazolo[4,3-a]pyridin-6-yl)-3-(hydroxymethyl)-4,5-dihydropyrrolo[3,4-c]pyrazol-6(1H)-one]	16 nM	13 nM	> 10 µM	14000 nM	0.0539 µM	< 11 nM	0.0262 µM
Cc1nn(C(C)C)c2c1C(c1ccc(Cl)cc1F)N(c1cc(C)c3nnc(C)n3c1)C2=O (centres unmarked) [Example 168, 4-(4-chloro-2-fluorophenyl)-5-(3,8-dimethyl-[1,2,4]triazolo[4,3-a]pyridin-6-yl)-1-isopropyl-3-methyl-4,5-dihydropyrrolo[3,4-c]pyrazol-6(1H)-one]	71 nM	30 nM	> 10 µM	11000 nM	0.0949 µM	59 nM	0.0403 µM
CCn1nc(C)c2c1C(=O)N(c1cc(C)c(=O)n(C)c1)C2c1ccc(Cl)cc1F (centres unmarked) [Example 170, 4-(4-chloro-2-fluorophenyl)-5-(1,5-dimethyl-6-oxo-1,6-dihydropyridin-3-yl)-1-ethyl-3-methyl-4,5-dihydropyrrolo[3,4-c]pyrazol-6(1H)-one]	16 nM	13 nM	> 10 µM	630 nM	0.0331 µM	15 nM	0.0159 µM
CCn1nc2c(c1C)C(c1ccc(Cl)cc1F)N(c1cc(C)c(=O)n(C)c1)C2=O (centres unmarked) [Example 171, 4-(4-chloro-2-fluorophenyl)-5-(1,5-dimethyl-6-oxo-1,6-dihydropyridin-3-yl)-2-ethyl-3-methyl-4,5-dihydropyrrolo[3,4-c]pyrazol-6(2H)-one]	140 nM	93 nM	> 10 µM	1500 nM	0.297 µM	140 nM	0.174 µM
Cc1n[nH]c2c1C(c1ccc(F)cc1F)N(c1cc(C)c3nnc(C)n3c1)C2=O (centres unmarked) [Example 172, 4-(2,4-difluorophenyl)-5-(3,8-dimethyl-[1,2,4]triazolo[4,3-a]pyridin-6-yl)-3-methyl-4,5-dihydropyrrolo[3,4-c]pyrazol-6(2H)-one]	220 nM	110 nM	> 10 µM	> 37000 nM	0.782 µM	97 nM	0.323 µM
COc1ncccc1-n1nc(C)c2c1C(=O)N(c1cc(C)c3nnc(C)n3c1)C2c1ccc(F)cc1F (centres unmarked) [Example 173, 4-(2,4-difluorophenyl)-5-(3,8-dimethyl-[1,2,4]triazolo[4,3-a]pyridin-6-yl)-1-(2-methoxypyridin-3-yl)-3-methyl-4,5-dihydropyrrolo[3,4-c]pyrazol-6(1H)-one]	79 nM	87 nM	> 10 µM	> 37000 nM	0.282 µM	58 nM	0.139 µM
Cc1nn(C(C)C)c2c1C(c1ccc(F)cc1F)N(c1cc(C)c3nnc(C)n3c1)C2=O (centres unmarked) [Example 174, 4-(2,4-difluorophenyl)-5-(3,8-dimethyl-[1,2,4]triazolo[4,3-a]pyridin-6-yl)-1-isopropyl-3-methyl-4,5-dihydropyrrolo[3,4-c]pyrazol-6(1H)-one]	110 nM	72 nM	> 10 µM	12000 nM	0.105 µM	52 nM	0.0588 µM
Cc1cc(N2C(=O)c3nn(C(C)C)c(C)c3C2c2ccc(F)cc2F)cn2c(C)nnc12 (centres unmarked) [Example 175, 4-(2,4-difluorophenyl)-5-(3,8-dimethyl-[1,2,4]triazolo[4,3-a]pyridin-6-yl)-2-isopropyl-3-methyl-4,5-dihydropyrrolo[3,4-c]pyrazol-6(2H)-one]	72 nM	37 nM	> 10 µM	13000 nM	0.131 µM	34 nM	0.0867 µM
Cc1nn(C2CC2)c2c1C(c1ccc(F)cc1F)N(c1cc(C)c3nnc(C)n3c1)C2=O (centres unmarked) [Example 176, 1-cyclopropyl-4-(2,4-difluorophenyl)-5-(3,8-dimethyl-[1,2,4]triazolo[4,3-a]pyridin-6-yl)-3-methyl-4,5-dihydropyrrolo[3,4-c]pyrazol-6(1H)-one]	120 nM	90 nM	> 10 µM	> 37000 nM	0.106 µM	100 nM	0.0631 µM
Cc1nn(C2CC2)c2c1C(c1ccc(Cl)cc1F)N(c1cc(C)c3nnc(C)n3c1)C2=O (centres unmarked) [Example 178, 4-(4-chloro-2-fluorophenyl)-1-cyclopropyl-5-(3,8-dimethyl-[1,2,4]triazolo[4,3-a]pyridin-6-yl)-3-methyl-4,5-dihydropyrrolo[3,4-c]pyrazol-6(1H)-one]	68 nM	62 nM	> 10 µM	32000 nM	0.107 µM	66 nM	0.0491 µM
Cc1nn(C2CC2)c2c1C(c1ccc(Cl)cc1F)N(c1cc(C)c(=O)n(C)c1)C2=O (centres unmarked) [Example 179, 4-(4-chloro-2-fluorophenyl)-1-cyclopropyl-5-(1,5-dimethyl-6-oxo-1,6-dihydropyridin-3-yl)-3-methyl-4,5-dihydropyrrolo[3,4-c]pyrazol-6(1H)-one]	92 nM	90 nM	> 10 µM	3900 nM	0.272 µM	95 nM	0.12 µM
